Experiments:
barnyard grass [1] = assay: Test Example 3: herbicidal effect by foliage application, Wagner pot (Table 18, symbol H); assay type: in vivo, barnyard grass (Echinochloa crus-galli); conditions: amount of applied herbicide 320 g/ha
In short: (§1)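 Plants were sown in alluvial soil held under 0.1–0.5 cm standing water and grown 14 days in a greenhouse at 25–30 °C. An emulsifiable formulation, water-diluted to the set dose, was then sprayed onto the foliage, and effects were scored three weeks later using previously defined criteria.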

Chinese sprangletop = assay: Test Example 3: herbicidal effect by foliage application, Wagner pot (Table 18, symbol D); assay type: in vivo, chinese sprangletop (Leptochloa chinensis); conditions: amount of applied herbicide 320 g/ha
In short: as §1

rice flat sedge = assay: Test Example 3: herbicidal effect by foliage application, Wagner pot (Table 18, symbol E); assay type: in vivo, rice flat sedge (Cyperus iria); conditions: amount of applied herbicide 320 g/ha
In short: as §1

southern crabgrass [2] = assay: Test Example 4: herbicidal effect by soil treatment (Table 19, symbol F); assay type: in vivo, southern crabgrass (Digitaria ciliaris); conditions: amount of applied herbicide 320 g/ha
In short: (§2)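 Herbicidal effect was rated 3 weeks after treatment, using the scoring criteria of an earlier test. The compound, formulated as an emulsion and diluted in water to a set herbicide amount, had been sprayed uniformly on soil over freshly sown seeds. Growth took place in a greenhouse at 25° C. to 30° C.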

green foxtail [3] = assay: Test Example 4: herbicidal effect by soil treatment (Table 19, symbol G); assay type: in vivo, green foxtail (Setaria viridis); conditions: amount of applied herbicide 320 g/ha
In short: as §2

barnyard grass [4] = assay: Test Example 4: herbicidal effect by soil treatment (Table 19, symbol H); assay type: in vivo, barnyard grass (Echinochloa crus-galli); conditions: amount of applied herbicide 320 g/ha
In short: as §2

wild oat [5] = assay: Test Example 4: herbicidal effect by soil treatment (Table 19, symbol I); assay type: in vivo, wild oat (Avena fatua); conditions: amount of applied herbicide 320 g/ha
In short: as §2

blackgrass [6] = assay: Test Example 4: herbicidal effect by soil treatment (Table 19, symbol J); assay type: in vivo, blackgrass (Alopecurus myosuroides); conditions: amount of applied herbicide 320 g/ha
In short: as §2

Italian ryegrass [7] = assay: Test Example 4: herbicidal effect by soil treatment (Table 19, symbol K); assay type: in vivo, Italian ryegrass (Lolium multiflorum); conditions: amount of applied herbicide 320 g/ha
In short: as §2

windgrass [8] = assay: Test Example 4: herbicidal effect by soil treatment (Table 19, symbol L); assay type: in vivo, windgrass (Apera spica-venti); conditions: amount of applied herbicide 320 g/ha
In short: as §2

velvetleaf [9] = assay: Test Example 4: herbicidal effect by soil treatment (Table 19, symbol M); assay type: in vivo, velvetleaf (Abutilon theophrasti); conditions: amount of applied herbicide 320 g/ha
In short: as §2

redroot pigweed [10] = assay: Test Example 4: herbicidal effect by soil treatment (Table 19, symbol N); assay type: in vivo, redroot pigweed (Amaranthus retroflexus); conditions: amount of applied herbicide 320 g/ha
In short: as §2

lambsquarters [11] = assay: Test Example 4: herbicidal effect by soil treatment (Table 19, symbol O); assay type: in vivo, lambsquarters (Chenopodium album); conditions: amount of applied herbicide 320 g/ha
In short: as §2

chickweed [12] = assay: Test Example 4: herbicidal effect by soil treatment (Table 19, symbol P); assay type: in vivo, common chickweed (Stellaria media); conditions: amount of applied herbicide 320 g/ha
In short: as §2

persian speedwell [13] = assay: Test Example 4: herbicidal effect by soil treatment (Table 19, symbol R); assay type: in vivo, Persian speedwell (Veronica persica); conditions: amount of applied herbicide 320 g/ha
In short: as §2

southern crabgrass [14] = assay: Test Example 5: herbicidal effect by foliage application, plastic box (Table 20, symbol F); assay type: in vivo, southern crabgrass (Digitaria ciliaris); conditions: foliage application, AAH 320 g/ha, evaluated three weeks after application
In short: (§3)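 Foliar spray test: emulsion formulation diluted in water to a set application rate, sprayed onto 14-day-old plants raised in diluvial soil at 25° C to 30° C under glass. Both herbicidal effect and crop effect rated visually three weeks later.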

green foxtail [15] = assay: Test Example 5: herbicidal effect by foliage application, plastic box (Table 20, symbol G); assay type: in vivo, green foxtail (Setaria viridis); conditions: foliage application, AAH 320 g/ha, evaluated three weeks after application
In short: as §3

barnyard grass [16] = assay: Test Example 5: herbicidal effect by foliage application, plastic box (Table 20, symbol H); assay type: in vivo, barnyard grass (Echinochloa crus-galli); conditions: foliage application, AAH 320 g/ha, evaluated three weeks after application
In short: as §3

wild oat [17] = assay: Test Example 5: herbicidal effect by foliage application, plastic box (Table 20, symbol I); assay type: in vivo, wild oat (Avena fatua); conditions: foliage application, AAH 320 g/ha, evaluated three weeks after application
In short: as §3

blackgrass [18] = assay: Test Example 5: herbicidal effect by foliage application, plastic box (Table 20, symbol J); assay type: in vivo, blackgrass (Alopecurus myosuroides); conditions: foliage application, AAH 320 g/ha, evaluated three weeks after application
In short: as §3

Italian ryegrass [19] = assay: Test Example 5: herbicidal effect by foliage application, plastic box (Table 20, symbol K); assay type: in vivo, Italian ryegrass (Lolium multiflorum); conditions: foliage application, AAH 320 g/ha, evaluated three weeks after application
In short: as §3

windgrass [20] = assay: Test Example 5: herbicidal effect by foliage application, plastic box (Table 20, symbol L); assay type: in vivo, windgrass (Apera spica-venti); conditions: foliage application, AAH 320 g/ha, evaluated three weeks after application
In short: as §3

velvetleaf [21] = assay: Test Example 5: herbicidal effect by foliage application, plastic box (Table 20, symbol M); assay type: in vivo, velvetleaf (Abutilon theophrasti); conditions: foliage application, AAH 320 g/ha, evaluated three weeks after application
In short: as §3

redroot pigweed [22] = assay: Test Example 5: herbicidal effect by foliage application, plastic box (Table 20, symbol N); assay type: in vivo, redroot pigweed (Amaranthus retroflexus); conditions: foliage application, AAH 320 g/ha, evaluated three weeks after application
In short: as §3

lambsquarters [23] = assay: Test Example 5: herbicidal effect by foliage application, plastic box (Table 20, symbol O); assay type: in vivo, lambsquarters (Chenopodium album); conditions: foliage application, AAH 320 g/ha, evaluated three weeks after application
In short: as §3

chickweed [24] = assay: Test Example 5: herbicidal effect by foliage application, plastic box (Table 20, symbol P); assay type: in vivo, common chickweed (Stellaria media); conditions: foliage application, AAH 320 g/ha, evaluated three weeks after application
In short: as §3

persian speedwell [25] = assay: Test Example 5: herbicidal effect by foliage application, plastic box (Table 20, symbol R); assay type: in vivo, Persian speedwell (Veronica persica); conditions: foliage application, AAH 320 g/ha, evaluated three weeks after application
In short: as §3

SMILES | herbicidal effect on H: barnyard grass (barnyard grass [1]) | herbicidal effect on D: Chinese sprangletop (Chinese sprangletop) | herbicidal effect on E: rice flat sedge (rice flat sedge) | herbicidal effect on F: southern crabgrass (southern crabgrass [2]) | herbicidal effect on G: green foxtail (green foxtail [3]) | herbicidal effect on H: barnyard grass (barnyard grass [4]) | herbicidal effect on I: wild oat (wild oat [5]) | herbicidal effect on J: blackgrass (blackgrass [6]) | F: southern crabgrass, herbicidal effect (criteria 0-5) (southern crabgrass [14]) | G: green foxtail, herbicidal effect (criteria 0-5) (green foxtail [15]) | H: barnyard grass, herbicidal effect (criteria 0-5) (barnyard grass [16]) | I: wild oat, herbicidal effect (criteria 0-5) (wild oat [17]) | J: blackgrass, herbicidal effect (criteria 0-5) (blackgrass [18]) | K: Italian ryegrass, herbicidal effect (criteria 0-5) (Italian ryegrass [19]) | L: windgrass, herbicidal effect (criteria 0-5) (windgrass [20]) | M: velvetleaf, herbicidal effect (criteria 0-5) (velvetleaf [21]) | N: redroot pigweed, herbicidal effect (criteria 0-5) (redroot pigweed [22]) | O: lambsquarters, herbicidal effect (criteria 0-5) (lambsquarters [23]) | P: chickweed, herbicidal effect (criteria 0-5) (chickweed [24]) | R: persian speedwell, herbicidal effect (criteria 0-5) (persian speedwell [25]) | further results
Cc1nn(C)c(=O)c(-c2c(-c3ccc(OC(F)F)cc3)sc3ccc(F)cc23)c1OC(=O)N(C)C [2-291] | 4 (Herbicidal rate of 70% or more and less than 90%) | 3 (Herbicidal rate of 40% or more and less than 70%) | 2 (Herbicidal rate of 20% or more and less than 40%) | 0 (Herbicidal rate of 5% or less (almost no effect)) | 0 (Herbicidal rate of 5% or less (almost no effect)) | 0 (Herbicidal rate of 5% or less (almost no effect)) | 0 (Herbicidal rate of 5% or less (almost no effect)) | 0 (Herbicidal rate of 5% or less (almost no effect)) | 0 (Herbicidal rate of 5% or less (almost no effect)) | 4 (Herbicidal rate of 70% or more and less than 90%) | 0 (Herbicidal rate of 5% or less (almost no effect)) | 0 (Herbicidal rate of 5% or less (almost no effect)) | 3 (Herbicidal rate of 40% or more and less than 70%) | 3 (Herbicidal rate of 40% or more and less than 70%) | 0 (Herbicidal rate of 5% or less (almost no effect)) | 2 (Herbicidal rate of 20% or more and less than 40%) | 5 (Herbicidal rate of 90% or more (almost completely withered)) | 5 (Herbicidal rate of 90% or more (almost completely withered)) | 5 (Herbicidal rate of 90% or more (almost completely withered)) | 5 (Herbicidal rate of 90% or more (almost completely withered)) | herbicidal effect on K: Italian ryegrass (Italian ryegrass [7]): 0 (Herbicidal rate of 5% or less (almost no effect)); herbicidal effect on L: windgrass (windgrass [8]): 0 (Herbicidal rate of 5% or less (almost no effect)); herbicidal effect on M: velvetleaf (velvetleaf [9]): 0 (Herbicidal rate of 5% or less (almost no effect)); herbicidal effect on N: redroot pigweed (redroot pigweed [10]): 3 (Herbicidal rate of 40% or more and less than 70%); herbicidal effect on O: lambsquarters (lambsquarters [11]): 3 (Herbicidal rate of 40% or more and less than 70%); herbicidal effect on P: chickweed (chickweed [12]): 4 (Herbicidal rate of 70% or more and less than 90%); herbicidal effect on R: persian speedwell (persian speedwell [13]): 3 (Herbicidal rate of 40% or more and less than 70%)
Cc1nn(C)c(=O)c(-c2c(-c3ccc(Cl)cc3Cl)sc3ccc(F)cc23)c1O [2-346] | 4 (Herbicidal rate of 70% or more and less than 90%) | 3 (Herbicidal rate of 40% or more and less than 70%) | 1 (Herbicidal rate of 5% or more and less than 20%) | 0 (Herbicidal rate of 5% or less (almost no effect)) | 0 (Herbicidal rate of 5% or less (almost no effect)) | 0 (Herbicidal rate of 5% or less (almost no effect)) | 0 (Herbicidal rate of 5% or less (almost no effect)) | 0 (Herbicidal rate of 5% or less (almost no effect)) | 0 (Herbicidal rate of 5% or less (almost no effect)) | 0 (Herbicidal rate of 5% or less (almost no effect)) | 0 (Herbicidal rate of 5% or less (almost no effect)) | 0 (Herbicidal rate of 5% or less (almost no effect)) | 0 (Herbicidal rate of 5% or less (almost no effect)) | 3 (Herbicidal rate of 40% or more and less than 70%) | 2 (Herbicidal rate of 20% or more and less than 40%) | 1 (Herbicidal rate of 5% or more and less than 20%) | 3 (Herbicidal rate of 40% or more and less than 70%) | 2 (Herbicidal rate of 20% or more and less than 40%) | 5 (Herbicidal rate of 90% or more (almost completely withered)) | 4 (Herbicidal rate of 70% or more and less than 90%) | herbicidal effect on K: Italian ryegrass (Italian ryegrass [7]): 0 (Herbicidal rate of 5% or less (almost no effect)); herbicidal effect on L: windgrass (windgrass [8]): 0 (Herbicidal rate of 5% or less (almost no effect)); herbicidal effect on M: velvetleaf (velvetleaf [9]): 0 (Herbicidal rate of 5% or less (almost no effect)); herbicidal effect on N: redroot pigweed (redroot pigweed [10]): 0 (Herbicidal rate of 5% or less (almost no effect)); herbicidal effect on O: lambsquarters (lambsquarters [11]): 3 (Herbicidal rate of 40% or more and less than 70%); herbicidal effect on P: chickweed (chickweed [12]): 0 (Herbicidal rate of 5% or less (almost no effect)); herbicidal effect on R: persian speedwell (persian speedwell [13]): 0 (Herbicidal rate of 5% or less (almost no effect))
CCn1nc(C)c(O)c(-c2c(-c3ccc(C(F)(F)F)cc3)sc3ccc(F)cc23)c1=O [2-402] | 5 (Herbicidal rate of 90% or more (almost completely withered)) | 3 (Herbicidal rate of 40% or more and less than 70%) | 3 (Herbicidal rate of 40% or more and less than 70%) |  |  |  |  |  | 4 (Herbicidal rate of 70% or more and less than 90%) | 3 (Herbicidal rate of 40% or more and less than 70%) | 5 (Herbicidal rate of 90% or more (almost completely withered)) | 4 (Herbicidal rate of 70% or more and less than 90%) | 5 (Herbicidal rate of 90% or more (almost completely withered)) | 5 (Herbicidal rate of 90% or more (almost completely withered)) | 5 (Herbicidal rate of 90% or more (almost completely withered)) | 4 (Herbicidal rate of 70% or more and less than 90%) | 4 (Herbicidal rate of 70% or more and less than 90%) | 4 (Herbicidal rate of 70% or more and less than 90%) | 5 (Herbicidal rate of 90% or more (almost completely withered)) | 5 (Herbicidal rate of 90% or more (almost completely withered)) | herbicidal effect, F: southern crabgrass (southern crabgrass [2]): 2 (Herbicidal rate of 20% or more and less than 40%); herbicidal effect, G: green foxtail (green foxtail [3]): 0 (Herbicidal rate of 5% or less (almost no effect)); herbicidal effect, H: barnyard grass (barnyard grass [4]): 0 (Herbicidal rate of 5% or less (almost no effect)); herbicidal effect, I: wild oat (wild oat [5]): 0 (Herbicidal rate of 5% or less (almost no effect)); herbicidal effect, J: blackgrass (blackgrass [6]): 0 (Herbicidal rate of 5% or less (almost no effect)); herbicidal effect, K: Italian ryegrass (Italian ryegrass [7]): 2 (Herbicidal rate of 20% or more and less than 40%); herbicidal effect, L: windgrass (windgrass [8]): 2 (Herbicidal rate of 20% or more and less than 40%); herbicidal effect, M: velvetleaf (velvetleaf [9]): 0 (Herbicidal rate of 5% or less (almost no effect)); herbicidal effect, N: redroot pigweed (redroot pigweed [10]): 1 (Herbicidal rate of 5% or more and less than 20%); herbicidal effect, O: lambsquarters (lambsquarters [11]): 1 (Herbicidal rate of 5% or more and less than 20%); herbicidal effect, P: chickweed (chickweed [12]): 4 (Herbicidal rate of 70% or more and less than 90%); herbicidal effect, R: persian speedwell (persian speedwell [13]): 5 (Herbicidal rate of 90% or more (almost completely withered))

Reference: US20230085307A1, “PYRIDAZINONE COMPOUND AND HERBICIDE” (NISSAN CHEMICAL CORPORATION, priority 2019, published 2023)
